Assay results as given in patent publication US8367831B2, “Heterocyclic compound or salt thereof and intermediate thereof” (priority 2006, dated 2013).
Where a name gives a salt, the structure may show the parent alone.

Tests used:
[1] = Hygroscopicity of the salt (statement); format: physicochemical; settings: trihydrochloride salt
S. aureus FDA209P = test: Susceptibility test 1: MIC by micro-dilution method; format: cell-based; settings: Staphylococcus aureus, read-out: MIC (μg/mL) S. aureus FDA209P
Method: (§1) Test substances were initially dissolved in dimethylsulfoxide. Antibacterial activities (MICs) of the same compounds were determined by the micro-dilution method as recommended by the Japanese Society of Chemotherapy.
(§2) The bacteria cultured on Mueller-Hinton agar (MHA) plates at 35° C. overnight were suspended in sterile physiological saline in a concentration that was equivalent to 0.5 McFarland. The bacterial inoculum was prepared by 10-fold dilution of this suspension. Approximately 0.005 mL of the bacterial inoculum was inoculated into Cation-adjusted Mueller-Hinton broth (CAMHB, 100 μL/well) containing the test substance and was incubated at 35° C. overnight. The lowest concentration of the test substance at which no bacterial growth was macroscopically observed was determined as the MIC.

S. aureus F-3095 = test: as above; format: cell-based; settings: Staphylococcus aureus, F3095, read-out: MIC (μg/mL) S. aureus F-3095
Method: as §1, §2

[2] = Safety (general statement); settings: qualitative statement, no comparator named
Description: The compound of the general formula [1] of the present invention has excellent safety. The safety can be evaluated by various tests, for example, by various types of safety tests selected from a cytotoxicity test, a selectivity test against DNA gyrase of human and various bacteria, a selectivity test against topoisomerase IV of human and various bacteria, an hERG test, a repeat-dose toxicity test, a cytochrome P450 (CYP) activity inhibition test, a metabolic dependence inhibition test, an in vivo mouse micronucleus test, an in vivo rat liver UDS test, and the like.

[3] = Antimicrobial activity (general statement); settings: qualitative statement, no comparator named
[4] = system: Staphylococcus aureus (S. aureus Smith); test: S. aureus infection experiment in mice; format: in vivo; settings: ICR mice, five per group, intraperitoneal infection, 1 hour after infection
Method: ICR mice (male, SPF grade, 4-week old, five mice per group) were used. A bacterial inoculum was prepared by suspending Staphylococcus aureus (S. aureus
Smith), which was cultured on a Mueller-Hinton agar plate at 37° C. overnight, in sterile physiological saline, preparing a bacterial solution of about 4×10^8 CFU/mL, and diluting the solution 10-fold in 5.6% mucin-phosphate buffer. ICR mice were intraperitoneally administered with the bacterial inoculum (approximately 2×10^7 CFU/mouse) to induce infection. Test substances were dissolved in 10% hydroxypropyl-β-cyclodextrin and 0.05 mol/L hydrochloric acid. […] The number of surviving mice was recorded on 5 days after the infection.

[5] = Tissue distribution (general statement); settings: qualitative statement, no comparator named
[6] = Metabolic stability (general statement); format: in vitro ADME; settings: qualitative statement, no comparator named
Description: The compound of the general formula [1] of the present invention has excellent metabolic stability. The metabolic stability can be evaluated by various tests, for example, by various types of stability tests selected from a human liver microsome metabolic stability test, a human S9 stability test, and the like.

Cytotoxicity test (XTT) = format: cell-based; settings: African green monkey, vero cells, 3 days incubation, absorbance 450 nm, read-out: CC50 (concentration when cell proliferation was inhibited by 50%)
Method: Each test substance was dissolved in dimethyl sulfoxide and was prepared to each concentration with E-MEM containing 10% FBS, and then 0.1 mL of this solution was dispensed into each well of a 96-well microplate. A vero cell suspension containing 3×10^4 cells/mL was prepared with E-MEM containing 10% FBS, and 0.1 mL of the suspension was inoculated to each well. After incubation in 5% CO2 at 37° C. for 3 days, 50 μL of E-MEM containing 1 mg/mL of 2,3-bis-(2-methoxy-4-nitro-5-sulfophenyl)-5-[(phenylamino)carbonyl]-2H-tetrazolium, inner salt, monosodium salt (XTT) and 25 μM of phenazine methosulfate (PMS) was added to each well. After about 2 hours, the absorbance at 450 nm was measured with a microplate reader.
The absorbance ratio of each well supplied with the test substance and the control not containing the test substance was calculated, and the concentration of each compound when cell proliferation was inhibited by 50% (CC50; μg/mL) was calculated.

Row | Compound | hygroscopicity [1] | MIC (S. aureus FDA209P) [µg/mL] | MIC (S. aureus F-3095) [µg/mL] | safety [2] | antimicrobial activity [3] | number of surviving mice on 5 days after the infection ([4]; 3 mg/kg subcutaneously once) | tissue distribution [5] | metabolic stability [6] | CC50 at 3 days (Cytotoxicity test (XTT)) [mg/L] | number of surviving mice on 5 days after the infection ([4]; 1 mg/kg subcutaneously once)
1 | Cl.Cl.Cl.O=c1ccc2ncc(F)cc2n1CCN1CCC(NCc2cc3c(cn2)OCCO3)CC1 [1-(2-(4-((2,3-dihydro(1,4)dioxino(2,3-c)pyridin-7-ylmethyl)amino)piperidin-1-yl)ethyl)-7-fluoro-1,5-naphthyridin-2(1H)-one trihydrochloride] | nonhygroscopic | – | – | – | – | – | – | – | – | –
2 | COc1cnc2ccc(=O)n(CCN3CCC(NCc4cc5c(cn4)OCCO5)CC3)c2c1 [Example 2, 1-(2-(4-((2,3-dihydro(1,4)dioxino(2,3-c)pyridin-7-ylmethyl)amino)piperidin-1-yl)ethyl)-7-methoxy-1,5-naphthyridin-2(1H)-one hydrochloride] | – | 0.0313 | 0.0313 | higher | higher | all mice | higher | higher | ≥ 51.2 | –
3 | O=c1ccc2ncc(F)cc2n1CCN1CCC(NCc2cc3c(cn2)OCCO3)CC1 [Example 4, 1-(2-(4-((2,3-dihydro(1,4)dioxino(2,3-c)pyridin-7-ylmethyl)amino)piperidin-1-yl)ethyl)-7-fluoro-1,5-naphthyridin-2(1H)-one hydrochloride] | – | 0.0313 | 0.0313 | higher | higher | all mice | higher | higher | ≥ 51.2 | –
4 | O=c1ccc2ncc(Cl)cc2n1CCN1CCC(NCc2cc3c(cn2)OCCO3)CC1 [Example 77, 7-chloro-1-(2-(4-((2,3-dihydro(1,4)dioxino(2,3-c)pyridin-7-ylmethyl)amino)piperidin-1-yl)ethyl)-1,5-naphthyridin-2(1H)-one hydrochloride] | – | 0.0313 | 0.0625 | higher | higher | all mice | higher | higher | ≥ 51.2 | –
5 | COc1cnc2ccc(=O)n(CCN3CCC(NCc4cc5c(cn4)OCCO5)CC3)c2n1 [Example 85, 5-(2-(4-((2,3-dihydro(1,4)dioxino(2,3-c)pyridin-7-ylmethyl)amino)piperidin-1-yl)ethyl-3-methoxypyrido(2,3-b)pyrazin-6(5H)-one hydrochloride] | – | 0.0313 | 0.0313 | higher | higher | – | higher | higher | ≥ 51.2 | four mice out of five
